Assay results from patent US20070197446A1, “MHC binding peptides and their uses” (ProImmune Limited, priority 2006, published 2007).

Experiments:
Format in all cases: binding
HLA-B*3501 = HLA-B*3501 (Homo sapiens, UniProt P01889, A329T/A93T/A95T/C349S/D201E/D98Y/E176V/E187L/E204Q/E69T/I218V/K202T/L119I/Q94N/R155S/R180L/S121R/S35A/S48A/T118I/V127L/V306I/V36M/Y140S/Y91F)
HLA-A*0201 = HLA-A*0201 (Homo sapiens, UniProt P04439, D140Y/D185E/D98H/E176V/E277Q/G131W/G231S/I119V/I121R/I166T/I218V/L300P/L318F/N151K/N90K/P208A/P217A/Q86G/Q94H/R138H/R169H/T345S)
HLA-B*0801 = HLA-B*0801 (Homo sapiens, UniProt P01889, A93T/A95T/D138N/E176V/E187T/K202T/Q94N/R180D/S35A/V36M/Y33D/Y91F)
HLA-A*0101 = HLA-A*0101 (Homo sapiens, UniProt P04439, A114D/A174V/A182V/D101N/D185E/E176A/E190D/L180R/Q94H/R68K/S129P/T187R/V100A/V91M/W191G)
HLA-A*0301 = HLA-A*0301 (Homo sapiens, UniProt P04439)
HLA-B*0702 = HLA-B*0702 (Homo sapiens, UniProt P01889)

## AGWLLGNPM [SEQ ID NO: 42]
HLA-B*3501
  ELISA (Absorption-Pass/Fail Control): −0.06

## AIVSLVKSD [SEQ ID NO: 14]
HLA-A*0201
  ELISA (Absorption-Pass/Fail Control): 0.43

## AQDILEKKH [SEQ ID NO: 21]
HLA-A*0201
  ELISA (Absorption-Pass/Fail Control): 0.15

## DILEKKHNG [SEQ ID NO: 34]
HLA-B*0801
  ELISA (Absorption-Pass/Fail Control): 0.53

## DTIMEKNVT [SEQ ID NO: 32]
HLA-B*0801
  ELISA (Absorption-Pass/Fail Control): 0.08

## FAIVSLVKS [SEQ ID NO: 13]
HLA-A*0201
  ELISA (Absorption-Pass/Fail Control): 0.07

## FINVPEWSY [SEQ ID NO: 10]
HLA-A*0101
  ELISA (Absorption-Pass/Fail Control): 0.16
HLA-B*3501
  ELISA (Absorption-Pass/Fail Control): 0.57

## GNPMCDEFI [SEQ ID NO: 39]
HLA-B*0801
  ELISA (Absorption-Pass/Fail Control): 0.04

## HANNSTEQV [SEQ ID NO: 17]
HLA-A*0201
  ELISA (Absorption-Pass/Fail Control): 0.43
HLA-B*3501
  ELISA (Absorption-Pass/Fail Control): 0.43

## HPVGEADYFEY (T cell epitope) [SEQ ID NO: 8, reference compound]
HLA-B*3501
  ELISA (Absorption-Pass/Fail Control): 0.55
  efficiency of binding to HLA-B*3501 (in words): high efficiency

## ILEKKHNGK [SEQ ID NO: 28]
HLA-A*0301
  ELISA (Absorption-Pass/Fail Control): −0.01
HLA-B*0801
  ELISA (Absorption-Pass/Fail Control): 0.95

## ILRDCSVAG [SEQ ID NO: 30]
HLA-B*0702
  ELISA (Absorption-Pass/Fail Control): 0.03

## ILRGSVAHK (T cell epitope) [SEQ ID NO: 5, reference compound]
HLA-A*0301
  ELISA (Absorption-Pass/Fail Control): 1.19
  efficiency of binding to HLA-A*0301 (in words): high efficiency

## IMEKNVTVT [SEQ ID NO: 19]
HLA-A*0201
  ELISA (Absorption-Pass/Fail Control): 0.02

## IVSLVKSDQ [SEQ ID NO: 15]
HLA-A*0201
  ELISA (Absorption-Pass/Fail Control): 0.04

## KKHNGKLCD [SEQ ID NO: 41]
HLA-B*3501
  ELISA (Absorption-Pass/Fail Control): −0.05

## KLCDLDGVK [SEQ ID NO: 22]
HLA-A*0301
  ELISA (Absorption-Pass/Fail Control): 1.16
HLA-A*0201
  ELISA (Absorption-Pass/Fail Control): 0.20

## KPLILRDCS [SEQ ID NO: 35]
HLA-B*0801
  ELISA (Absorption-Pass/Fail Control): 0.10

## KSDQICIGY [SEQ ID NO: 9]
HLA-A*0301
  ELISA (Absorption-Pass/Fail Control): 0.05
HLA-A*0101
  ELISA (Absorption-Pass/Fail Control): 0.47

## LFAIVSLVK [SEQ ID NO: 40]
HLA-B*3501
  ELISA (Absorption-Pass/Fail Control): 0.10

## LGNPMCDEF [SEQ ID NO: 43]
HLA-B*3501
  ELISA (Absorption-Pass/Fail Control): 0.35

## LILRDCSVA [SEQ ID NO: 23]
HLA-A*0201
  ELISA (Absorption-Pass/Fail Control): 0.57
HLA-B*0801
  ELISA (Absorption-Pass/Fail Control): 0.07

## LLFAIVSLV [SEQ ID NO: 12]
HLA-A*0201
  ELISA (Absorption-Pass/Fail Control): 1.06

## LVKSDQICI [SEQ ID NO: 29]
HLA-B*0702
  ELISA (Absorption-Pass/Fail Control): −0.06
HLA-B*3501
  ELISA (Absorption-Pass/Fail Control): 0.04

## MEKNVTVTH [SEQ ID NO: 20]
HLA-A*0201
  ELISA (Absorption-Pass/Fail Control): −0.02

## NVPEWSYIV [SEQ ID NO: 25]
HLA-A*0201
  ELISA (Absorption-Pass/Fail Control): 1.03

## NVTVTHAQD [SEQ ID NO: 27]
HLA-A*0301
  ELISA (Absorption-Pass/Fail Control): −0.04
HLA-B*0801
  ELISA (Absorption-Pass/Fail Control): 0.08

## PLILRDCSV [SEQ ID NO: 36]
HLA-B*0801
  ELISA (Absorption-Pass/Fail Control): 0.65

## PMCDEFINV [SEQ ID NO: 24]
HLA-A*0201
  ELISA (Absorption-Pass/Fail Control): 0.98

## SLVKSDQIC [SEQ ID NO: 16]
HLA-A*0201
  ELISA (Absorption-Pass/Fail Control): 0.09
HLA-B*3501
  ELISA (Absorption-Pass/Fail Control): −0.03

## TIMEKNVTV [SEQ ID NO: 18]
HLA-A*0201
  ELISA (Absorption-Pass/Fail Control): 0.99
HLA-B*0702
  ELISA (Absorption-Pass/Fail Control): 0.00
HLA-B*0801
  ELISA (Absorption-Pass/Fail Control): 0.80

## TPRVTGGGAM (T cell epitope) [SEQ ID NO: 6, reference compound]
HLA-B*0702
  ELISA (Absorption-Pass/Fail Control): 0.88
  efficiency of binding to HLA-B*0702 (in words): high efficiency

## VAGWLLGNP [SEQ ID NO: 37]
HLA-B*0801
  ELISA (Absorption-Pass/Fail Control): 0.04

## VLLFAIVSL [SEQ ID NO: 11]
HLA-A*0201
  ELISA (Absorption-Pass/Fail Control): 0.47

## VSLVKSDQI [SEQ ID NO: 31]
HLA-B*0801
  ELISA (Absorption-Pass/Fail Control): 0.36

## VTHAQDILE [SEQ ID NO: 33]
HLA-B*0801
  ELISA (Absorption-Pass/Fail Control): 0.31

## WLLGNPMCD [SEQ ID NO: 38]
HLA-B*0801
  ELISA (Absorption-Pass/Fail Control): 0.03

## YIVEKANPV [SEQ ID NO: 26]
HLA-A*0201
  ELISA (Absorption-Pass/Fail Control): 1.02
HLA-B*0702
  ELISA (Absorption-Pass/Fail Control): 0.11
HLA-B*0801
  ELISA (Absorption-Pass/Fail Control): 0.32

## YSEHPFTSQY (T cell epitope) [SEQ ID NO: 2, reference compound]
HLA-A*0101
  ELISA (Absorption-Pass/Fail Control): 0.58
  efficiency of binding to HLA-A*0101 (in words): high efficiency
